Test system: patients with rheumatoid arthritis
Assay: Phase II clinical study in rheumatoid arthritis: effectiveness (symptoms, physical examination, comprehensive evaluation)
Format: in vivo, human
Parameters: ESR Reduced to norm., % of cases / CRP Reduced to Norm., % of cases / RF Reduced to norm., % of cases: concentration or dose not given beside the values
Conditions: for AGS 50% increased, % of cases / AGS 50% increased, cases / CRP 50% reduced, % of cases / CRP 50% reduced, cases / CRP Reduced to Norm., % of cases / CRP Reduced to Norm., cases / ESR 50% reduced, % of cases / ESR 50% reduced, cases / ESR Reduced to norm., % of cases / ESR Reduced to norm., cases / ITJ 50% reduced, % of cases / ITJ 50% reduced, cases / ITJ Disappeared, % of cases / ITJ Disappeared, cases / MR 50% reduced, % of cases / MR 50% reduced, cases / MR Disappeared, % of cases / MR Disappeared, cases / NSJ 50% reduced, % of cases / NSJ 50% reduced, cases / NSJ Disappeared, % of cases / NSJ Disappeared, cases / RF 2 dilutions lower, % of cases / RF 2 dilutions lower, cases / RF Reduced to norm., cases: double blinded
Method: It was a multiple-centered, randomized, parallel, positive controlled Phrase II clinical study.
All clinical studies except the above mentioned 120 cases were conducted in a single-blind condition.
1) Age 18˜65, male or female who agreed to the investigational treatment for 12 weeks to 6 months. History of rheumatoid arthritis was within 3 years.
2) Documented Rheumatoid Arthritis based on a diagnostic criteria of 1987 Revised ARA Criteria for the Classification of Rheumatoid Arthritis
3) Diagnosis of a typical active stage of RA: A patient is said to be on an active stage of RA if he or she has satisfied at least 4 of the following 5 items.
2) Patient who quitted the treatment for the ineffectiveness 7 days after the start of administration was included in the efficacy analysis. Patient who quitted the treatment for the side effects was not included in the efficacy analysis but the safety analyses.
1) The placebo run-in period: Seven days before administration, the selected patients stopped using NSAIDs and took a placebo instead.
4) For the double-blinded study, patients in both groups would be given capsules and tablets in same shapes, odors and amount. Placebo of capsule or tablet were included. Neither doctors nor patients can tell the group of treatment from the other.
5) No analgesics, anti-inflammation drugs, immune regulatory agents or muscle relaxants were allowed during the period of study. Acetaminophen could be used when necessary. If a physical therapy was started before enrollment, it was allowed to be continued, yet, it should be taken all the way during the period of clinical study.
1) Pain at rest: patients were asked to scale the degree of pain with a ruler [drawing 1]
2) Morning stiffness: Patients were requested to make notes on duration of their morning joint stiffness, a time span from its appearance to recovery in minutes every morning. The doctors should evaluate their record sheets by questioning them. For example “Do you fell stiff in any of your joints? (today, these 2 days)” When get a “yes” in answer, then “when did you get up today?” and “when does the stiffness be gone?”
3) Swelling of joints: Take count of the index of joint swelling by summing up the degree number of each joint.
0=normal; 1=swelling soft tissues (synovium) without hydrarthrus; 2=swelling soft tissues (synovium) with hydrarthrus.
4) Tenderness of joints: Take count of the index of joint tenderness by summing up the degree number of each joint:
5) Grip strength: Fold the arm belt of a sphygmomanometer twice and seal it in a small cloth bag suitable for a hand to hold. Aerates the belt in pressure of 20 mm Hg. Patients were asked to grip the bag with their not braced left and right hand, the grip strength is the average pressures in mm Hg for three times.
6) Time consumed for a 15 meters' walk (Seconds): Time started from a calm standing to the final of 15 meters. The average of three times.
7) General joint function (criteria of ARA):
8) Self-scoring and physician's grading on disease conditions: Both patients and doctors were required to submit their score sheet every time on follow-up survey. The scoring was made upon following criteria:
9) Patient's general condition: condition on the physical strength, sleep and appetite.
No effect: less than 30% improvement in symptoms and physical signs.
Improved: About 50% improvement in symptoms and physical signs (including general conditions in physical strength, sleep and appetite).

[1] = double blind, n = 60 per group, 4 weeks
[2] = double blind, n = 60 per group, 8 weeks
[3] = double blind, n = 60 per group, 12 weeks

## CN(Cc1cnc2nc(N)nc(N)c2n1)c1ccc(C(=O)N[C@@H](CCC(=O)O)C(=O)O)cc1 [MTX, Methotrexate]
4 weeks
  Effective rate: 47.2%
  Overall effectiveness: Improved, % of patients: 36.6%
  Overall effectiveness: Improved, number of patient: 52
  Overall effectiveness: No effect, % of patients: 52.8%
  Overall effectiveness: No effect, number of patient: 75
  Overall effectiveness: Obv. improved, % of patients: 10.6%
  Overall effectiveness: Obv. improved, number of patient: 15
  AGS 50% increased, % of cases: 5.0%
  AGS 50% increased, cases: 3
  CRP 50% reduced, % of cases: 16.7%
  CRP 50% reduced, cases: 10
  CRP Reduced to Norm., % of cases: 6.7%
  CRP Reduced to Norm., cases: 4
  ESR 50% reduced, % of cases: 30.0%
  ESR 50% reduced, cases: 18
  ESR Reduced to norm., % of cases: 26.7%
  ESR Reduced to norm., cases: 16
  ITJ 50% reduced, % of cases: 31.7%
  ITJ 50% reduced, cases: 19
  ITJ Disappeared, % of cases: 3.3%
  ITJ Disappeared, cases: 2
  MR 50% reduced, % of cases: 38.3%
  MR 50% reduced, cases: 23
  MR Disappeared, % of cases: 25.0%
  MR Disappeared, cases: 15
  NSJ 50% reduced, % of cases: 40.0%
  NSJ 50% reduced, cases: 24
  NSJ Disappeared, % of cases: 15.0%
  NSJ Disappeared, cases: 9
  RF 2 dilutions lower, % of cases: 13.3%
  RF 2 dilutions lower, cases: 8
  RF Reduced to norm., cases: 0
8 weeks
  Effective rate: 64.8%
  Overall effectiveness: Improved, % of patients: 31.7%
  Overall effectiveness: Improved, number of patient: 45
  Overall effectiveness: No effect, % of patients: 35.2%
  Overall effectiveness: No effect, number of patient: 50
  Overall effectiveness: Obv. improved, % of patients: 33.1%
  Overall effectiveness: Obv. improved, number of patient: 47
  AGS 50% increased, % of cases: 10.0%
  AGS 50% increased, cases: 6
  CRP 50% reduced, % of cases: 26.7%
  CRP 50% reduced, cases: 16
  CRP Reduced to Norm., % of cases: 25.0%
  CRP Reduced to Norm., cases: 15
  ESR 50% reduced, % of cases: 41.7%
  ESR 50% reduced, cases: 25
  ESR Reduced to norm., % of cases: 31.7%
  ESR Reduced to norm., cases: 19
  ITJ 50% reduced, % of cases: 43.3%
  ITJ 50% reduced, cases: 26
  ITJ Disappeared, % of cases: 3.3%
  ITJ Disappeared, cases: 2
  MR 50% reduced, % of cases: 53.3%
  MR 50% reduced, cases: 32
  MR Disappeared, % of cases: 21.7%
  MR Disappeared, cases: 13
  NSJ 50% reduced, % of cases: 55.0%
  NSJ 50% reduced, cases: 33
  NSJ Disappeared, % of cases: 20.0%
  NSJ Disappeared, cases: 12
  RF 2 dilutions lower, % of cases: 36.7%
  RF 2 dilutions lower, cases: 22
  RF Reduced to norm., cases: 0
12 weeks
  Effective rate: 77.5%
  Overall effectiveness: Improved, % of patients: 28.9%
  Overall effectiveness: Improved, number of patient: 41
  Overall effectiveness: No effect, % of patients: 22.5%
  Overall effectiveness: No effect, number of patient: 32
  Overall effectiveness: Obv. improved, % of patients: 48.6%
  Overall effectiveness: Obv. improved, number of patient: 69
  AGS 50% increased, % of cases: 15.0%
  AGS 50% increased, cases: 9
  CRP 50% reduced, % of cases: 33.3%
  CRP 50% reduced, cases: 20
  CRP Reduced to Norm., % of cases: 8.3%
  CRP Reduced to Norm., cases: 5
  ESR 50% reduced, % of cases: 51.7%
  ESR 50% reduced, cases: 31
  ESR Reduced to norm., % of cases: 33.3%
  ESR Reduced to norm., cases: 20
  ITJ 50% reduced, % of cases: 51.7%
  ITJ 50% reduced, cases: 31
  ITJ Disappeared, % of cases: 15.0%
  ITJ Disappeared, cases: 9
  MR 50% reduced, % of cases: 60.0%
  MR 50% reduced, cases: 36
  MR Disappeared, % of cases: 25.0%
24 weeks
  Effective rate: 81.7%
  Overall effectiveness: Improved, % of patients: 10.0%
  Overall effectiveness: Improved, number of patient: 6
  Overall effectiveness: No effect, % of patients: 18.3%
  Overall effectiveness: No effect, number of patient: 11
  Overall effectiveness: Obv. improved, % of patients: 71.7%
  Overall effectiveness: Obv. improved, number of patient: 43
Double blind, 4 weeks, mean
  Changes in RA perimeters: GS-L: 12.70
  Changes in RA perimeters: GS-R: 12.05
  Changes in RA perimeters: ISJ: 2.47
  Changes in RA perimeters: ITJ: 6.83
  Changes in RA perimeters: MR: 33.52
  Changes in RA perimeters: NSJ: 1.92
  Changes in RA perimeters: NTJ: 3.53
  Changes in RA perimeters: PR: 1.33
Double blind, 8 weeks, mean
  Changes in RA perimeters: GS-L: 17.55
  Changes in RA perimeters: GS-R: 16.68
  Changes in RA perimeters: ISJ: 4.03
  Changes in RA perimeters: ITJ: 9.53
  Changes in RA perimeters: MR: 41.03
  Changes in RA perimeters: NSJ: 2.97
  Changes in RA perimeters: NTJ: 5.52
  Changes in RA perimeters: PR: 1.94
Double blind, 12 weeks, mean
  Changes in RA perimeters: GS, L: 22.03
  Changes in RA perimeters: GS, R: 21.85
  Changes in RA perimeters: ITJ: 11.59
  Changes in RA perimeters: MR: 46.08
  Changes in RA perimeters: NSJ: 3.92
  Changes in RA perimeters: NTJ: 6.73
  Changes in RA perimeters: PR: 2.60
  Changes in RA perimeters: TSJ: 5.08
[1]
  Effective rate: 43.3%
  Improved, % of patients: (31.7%)
  Improved, number of patients: 19
  No effect, % of patients: (56.7%)
  No effect, number of patients: 34
  Obviously improved, % of patients: (11.7%)
  Obviously improved, number of patients: 7
[2]
  Effective rate: 66.7%
  Improved, % of patients: (31.7%)
  Improved, number of patients: 19
  No effect, % of patients: (33.3%)
  No effect, number of patients: 20
  Obviously improved, % of patients: (35.0%)
  Obviously improved, number of patients: 21
[3]
  Effective rate: 75.0%
  Improved, % of patients: (26.7%)
  Improved, number of patients: 16
  No effect, % of patients: (25.0%)
  No effect, number of patients: 15
  Obviously improved, % of patients: (48.33%)
  Obviously improved, number of patients: 29

Reference: patent US20030232102A1, “Total glycosides of paeony, method to prepare the same and uses thereof” (priority 2001, published 2003)
